{"source": "paper PMC6010128", "about": "“Structure–activity relationship investigation of tertiary amine derivatives of cinnamic acid as acetylcholinesterase and butyrylcholinesterase inhibitors: compared with that of phenylpropionic acid, sorbic acid and hexanoic acid” (Journal of Enzyme Inhibition and Medicinal Chemistry, 2018)", "key": {"AChE [1]": {"target": "T1, AChE (Rattus norvegicus, UniProt P37136)", "T1 sequence (P37136 32-614)": "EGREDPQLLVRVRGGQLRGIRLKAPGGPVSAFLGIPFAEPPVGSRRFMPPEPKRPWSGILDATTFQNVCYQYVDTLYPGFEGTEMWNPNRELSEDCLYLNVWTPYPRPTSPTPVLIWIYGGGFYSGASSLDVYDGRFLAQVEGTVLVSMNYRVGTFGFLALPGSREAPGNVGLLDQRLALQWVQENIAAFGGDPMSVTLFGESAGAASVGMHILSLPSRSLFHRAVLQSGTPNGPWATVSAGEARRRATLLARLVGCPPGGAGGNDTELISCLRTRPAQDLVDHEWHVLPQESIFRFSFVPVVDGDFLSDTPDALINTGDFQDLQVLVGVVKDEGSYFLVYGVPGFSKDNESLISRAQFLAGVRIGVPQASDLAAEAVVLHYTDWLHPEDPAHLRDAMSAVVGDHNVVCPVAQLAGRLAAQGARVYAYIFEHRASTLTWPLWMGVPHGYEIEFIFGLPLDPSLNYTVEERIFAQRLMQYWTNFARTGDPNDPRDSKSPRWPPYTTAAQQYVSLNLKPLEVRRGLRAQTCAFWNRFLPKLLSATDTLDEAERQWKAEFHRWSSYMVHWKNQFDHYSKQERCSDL", "experiment": "biochemical"}, "BChE": {"target": "BChE (Rattus norvegicus, UniProt Q9JKC1)", "sequence (Q9JKC1 24-597)": "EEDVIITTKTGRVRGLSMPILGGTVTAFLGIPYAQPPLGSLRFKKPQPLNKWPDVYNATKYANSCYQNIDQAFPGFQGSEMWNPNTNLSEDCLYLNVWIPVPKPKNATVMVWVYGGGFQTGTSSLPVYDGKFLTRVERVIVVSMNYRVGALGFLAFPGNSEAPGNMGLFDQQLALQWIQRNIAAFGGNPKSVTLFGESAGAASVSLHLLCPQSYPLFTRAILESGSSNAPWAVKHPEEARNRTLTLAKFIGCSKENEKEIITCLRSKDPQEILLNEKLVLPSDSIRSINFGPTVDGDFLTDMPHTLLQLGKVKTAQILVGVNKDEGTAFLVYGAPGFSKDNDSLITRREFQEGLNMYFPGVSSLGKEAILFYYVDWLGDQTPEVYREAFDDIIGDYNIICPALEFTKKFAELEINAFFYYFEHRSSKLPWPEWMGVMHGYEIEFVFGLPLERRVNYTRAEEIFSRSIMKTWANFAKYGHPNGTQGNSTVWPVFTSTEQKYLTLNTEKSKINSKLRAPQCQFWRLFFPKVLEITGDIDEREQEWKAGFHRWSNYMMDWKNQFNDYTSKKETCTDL", "experiment": "biochemical", "design": "species or system Sprague–Dawley rat", "settings": "rat serum BChE, Mean ± SD, triplicate"}, "AChE [2]": {"target": "T1, AChE", "experiment": "Kinetic study of AChE inhibition (Lineweaver–Burk)", "type": "biochemical", "experimental": "Kinetic characterization of AChE was performed by a reported method. Compound 6g was added into the assay solution and preincubated with the enzyme at 30 °C, followed by the addition of 100 μL acetylthiocholine iodide including five concentrations. The assay solution contained 100 μL compound 6g, 100 μL DTNB, 2.79 ml 0.1 mol/l Na2HPO4/NaH2PO4 buffer (pH 7.4). Kinetic profile of the hydrolysis of acetylthiocholine iodide catalyzed by AChE was determined by the UV–Vis spectrometry at 412 nm. The parallel control experiment was carried out without compound 6g in the mixture.\nCompound 6g was selected for further kinetic study since it had the strongest inhibiting activity against AChE among new synthesized compounds.\nFig. 2 Lineaweaver–Burk plot for the inhibition of AChE by compound 6g\nTable 2 Kinetic parameters of AChE inhibited by compound 6g\nC Michaelis-Menten Km Vmax Ki Ki’\n(µmol/L) equation (mmol/L) (ΔAmin-1) (µmol//L) (µmol/L)\n(1 picture or pasted object on this page, not shown here)"}, "[3]": {"experiment": "Log P by shake flask method", "type": "physicochemical", "settings": "octanol / PBS pH = 7.4, shake flask", "experimental": "Log P is defined as the logarithm of octanol–water partition coefficient. […] Ultraviolet spectrophotometry was applied to determine the concentration of compounds. Log p values were calculated based on the data in triplicate."}, "[4]": {"experiment": "pKa by pH-titration method", "type": "physicochemical", "settings": "read-out: pKa", "experimental": "pKa is determined by pH-titration method according to the report. The titration curve E vs. VT was recorded and pKa value was calculated."}}, "data": [{"smiles": "O=C(C=Cc1ccccc1)Nc1ccc(OCCN2CCCC2)cc1", "note": "[Compound 6g]", "values": [{"measurement": "Selectivity for AChE", "setting": "AChE [1]; IC50 (BChE)/IC50 (AChE)", "result": 28.6}, {"measurement": "IC50", "setting": "AChE [1]; rat brain AChE, Mean ± SD, triplicate", "result": "3.64 ± 0.28", "unit": "µM"}, {"measurement": "IC50", "setting": "BChE", "result": "104 ± 1.34", "unit": "µM"}, {"measurement": "Vmax", "setting": "AChE [2]; AChE with 0.72 µmol/L compound 6g", "result": "0.023 ΔAmin-1"}, {"measurement": "Vmax", "setting": "AChE [2]; AChE with 1.43 µmol/L compound 6g", "result": "0.021 ΔAmin-1"}, {"measurement": "Vmax", "setting": "AChE [2]; AChE with 2.86 µmol/L compound 6g", "result": "0.019 ΔAmin-1"}, {"measurement": "non-competitive constant (Ki′)", "setting": "AChE [2]; AChE, acetylthiocholine iodide substrate", "result": 2.14, "unit": "µmol/L"}, {"measurement": "Ki", "setting": "AChE [2]; AChE, acetylthiocholine iodide substrate, read-out: competitive inhibit constant (Ki)", "result": 7.27, "unit": "µM"}, {"measurement": "type of inhibition against AChE", "setting": "AChE [2]; Lineweaver–Burk analysis", "result": "mixed-type inhibition"}, {"measurement": "logP", "setting": "[3]", "result": 1.33}, {"measurement": "pKa", "setting": "[4]", "result": 6.74}]}]}
